Like-named read-outs stand apart in the source and are kept apart here.
Key:
[1] = biological target: T1, glucagon receptor (GCGR) overexpressed CHO-K1 cells or human primary hepatocytes (Homo sapiens, UniProt P47871); test: Glucagon cAMP inhibition assay (Cisbio cAMP Dynamic 2 HTRF); assay type: cell-based
T1 construct: expressed in transfected cells; host or cells: GCGR overexpressed CHO-K1 cells or human primary hepatocytes (endogenous receptor)
How it was run: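 HTRF read-out of glucagon-induced cAMP, with IC50 from non-linear regression. Cells (GCGR CHO-K1 or human primary hepatocytes) in HBSS/0.1% BSA/800 nM IBMX took compound dilutions for 30 min (final DMSO 1%), then EC50-level glucagon for 30 min at room temperature, then a 60 min lysis/detection step.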

glucagon receptor (GCGR) = biological target: T2, glucagon receptor (GCGR) (Homo sapiens, UniProt P47871); test: I125-glucagon binding assay (competition, GCGR membrane fractions)
T2 construct: expressed in transfected cells; host or cells: CHO-K1 cells overexpressing GCGR (membrane fractions)
T2 sequence (P47871 26-477): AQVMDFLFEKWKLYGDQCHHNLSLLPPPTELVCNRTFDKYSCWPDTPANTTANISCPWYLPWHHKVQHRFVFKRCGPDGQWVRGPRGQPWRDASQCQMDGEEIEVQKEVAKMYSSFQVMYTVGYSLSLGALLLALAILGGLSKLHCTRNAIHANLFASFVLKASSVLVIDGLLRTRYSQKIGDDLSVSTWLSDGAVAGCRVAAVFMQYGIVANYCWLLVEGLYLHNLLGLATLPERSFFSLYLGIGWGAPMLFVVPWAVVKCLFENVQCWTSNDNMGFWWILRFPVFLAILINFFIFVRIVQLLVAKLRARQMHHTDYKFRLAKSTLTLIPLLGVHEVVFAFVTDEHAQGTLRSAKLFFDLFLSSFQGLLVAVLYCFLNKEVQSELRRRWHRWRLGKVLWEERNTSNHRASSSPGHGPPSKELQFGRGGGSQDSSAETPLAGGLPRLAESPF
How it was run: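 Competition of 0.0625 nM (final) I^125-glucagon for 30 min at 25° C, after 5 min compound preincubation, using 7.5 μg/well GCGR-overexpressing CHO-K1 membranes in 50 mM Tris pH 7.4, 0.5% BSA. Filtration onto PEI-coated GF/B, micro-beta counting, and non-linear regression gave IC50.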

[2] = inhibition of glucagon (EC50 concentration) induced cAMP production
[3] = competition with I125-glucagon 0.0625 nM, membrane fractions of GCGR overexpressed CHO-K1 cells

T1 sequence (P47871 26-477): as above

| Structure (SMILES) | IC50 cAMP [1, 2] [µM] | IC50 (glucagon receptor (GCGR); [3]) [µM] | IC50 cAMP [1] [µM] | further results |
| --- | --- | --- | --- | --- |
| CCCC[C@@H](COc1ccc(-c2cc3ccccc3o2)c(Cl)c1)Nc1ccc(C(=O)NCCC(=O)O)cc1 [Compound 3-10, (S)-3-(4-((1-(4-(benzofuran-2-yl)-3-chlorophenoxy)hexan-2-yl)amino)benzamido)propanoic Acid] | 0.0887 | 0.02 | – | – |
| CCOC(=O)CCNC(=O)c1ccc(N[C@H](Cc2ccc(-c3ccc(C(C)(C)C)cc3)cc2)C(=O)Nc2ccc(C(F)(F)F)cc2)cc1 [Compound 24-15, Ethyl (R)-3-(4-((3-(4′-(tert-butyl)-[1,1′-biphenyl]-4-yl)-1-oxo-1-((4-(trifluoromethyl)phenyl)amino)propan-2-yl)amino)benzamido)propanoate] | – | – | 7.988 | IC50 (glucagon receptor (GCGR)): 0.578 µM |
| O=C(O)CCNC(=O)c1ccc(N[C@@H](Cc2ccccc2)C(=O)Nc2ccc(-c3ccc(Cl)cc3Cl)cc2)cc1 [Compound 23-14, (S)-3-(4-((1-((2′,4′-dichloro-[1,1′-biphenyl]-4-yl)amino)-1-oxo-3-phenylpropan-2-yl)amino)benzamido)propanoic Acid] | – | – | – | IC50 cAMP ([1]; uM): >10 µM; IC50 (glucagon receptor (GCGR); uM): > 10 µM |
| CCOC(=O)CCNC(=O)c1ccc(N[C@@H](Cc2cccc3ccccc23)C(=O)Nc2ccc(C(C)(C)C)cc2)cc1 [Compound 23-17, Ethyl (S)-3-(4-((1-((4-(tert-butyl)phenyl)amino)-3-(naphthalen-1-yl)-1-oxopropan-2-yl)amino)benzamido)propanoate] | – | – | 7.4 | IC50 (glucagon receptor (GCGR); uM): > 10 µM |
| CCOC(=O)CCNC(=O)c1ccc(N[C@H](CC(C)C)C(=O)Nc2ccc(-c3cc4ccccc4o3)cc2)cc1 [Compound 24-1] | – | – | 1.5 | IC50 (glucagon receptor (GCGR); uM): > 10 µM |
| CC(C)C[C@@H](COc1ccc(-c2ccc(F)cc2F)nn1)Nc1ccc(C(=O)NCCC(=O)O)cc1 [Compound 17-1, (S)-3-(4-((1-((6-(2,4-difluorophenyl)pyridazin-3-yl)oxy)-4-methylpentan-2-yl)amino)benzamido)propanoic Acid] | 4.239 | 2.26 | – | – |
| CC(C)[C@@H](COc1ccc(-c2ccc(Cl)cc2Cl)nc1)Nc1ccc(C(=O)NCCC(=O)O)cc1 [Compound 10-4, (S)-3-(4-((1-((6-(2,4-dichlorophenyl)pyridin-3-yl)oxy)-3-methylbutan-2-yl)amino)benzamido)propanoic Acid] | 4.036 | 0.445 | – | – |
| CC[C@H](C)[C@@H](COc1ccc(-c2ccc(C(C)(C)C)cc2)cc1)Nc1ccc(C(=O)NCCC(=O)O)cc1 [Compound 1-3, 3-(4-(((2S,3S)-1-((4′-(tert-butyl)-[1,1′-biphenyl]-4-yl)oxy)-3-methylpentan-2-yl)amino)benzamido)propanoic Acid] | 0.8844 | 0.319 | – | – |
| CCCC[C@@H](COc1ccc(-c2nnc(C(C)(C)C)o2)cc1)Nc1ccc(C(=O)NCCC(=O)O)cc1 [Compound 1-49, (S)-3-(4-((1-(4-(5-(tert-butyl)-1,3,4-oxadiazol-2-yl)phenoxy)hexan-2-yl)amino)benzamido)propanoic Acid] | 7.065 | 7.2 | – | – |
| Cc1nc(OC[C@H](CC(C)C)Nc2ccc(C(=O)NCCC(=O)O)cc2)ccc1-c1cc2ccccc2o1 [Compound 18-9, (S)-3-(4-((1-((5-(benzofuran-2-yl)-6-methylpyridin-2-yl)oxy)-4-methylpentan-2-yl)amino)benzamido)propanoic Acid] | – | – | 0.4299 | IC50 (glucagon receptor (GCGR)): 0.207 µM |
| CC(C)(C)[C@@H](COc1ccc(-c2ccc(C(F)(F)F)cc2F)c(F)c1)Nc1ccc(C(=O)NCCC(=O)O)cc1 [Compound 8-23, (S)-3-(4-((1-((2,2′-difluoro-4′-(trifluoromethyl)-[1,1′-biphenyl]-4-yl)oxy)-3,3-dimethylbutan-2-yl)amino)benzamido)propanoic Acid] | 0.08946 | 0.081 | – | – |
| O=C(O)CCNC(=O)c1ccc(N[C@@H](Cc2cccc3ccccc23)C(=O)Nc2ccc(-c3cc4ccccc4o3)cc2)cc1 [Compound 23-16] | – | – | 1.193 | IC50 (glucagon receptor (GCGR)): 3.01 µM |
| CCOC(=O)CCNC(=O)c1ccc(N[C@@H](COc2ccc(-c3nc4ccccc4s3)cc2)C(C)C)cc1 [Compound 1-51, Ethyl (R)-3-(4-((1-(4-(benzo[d]thiazol-2-yl)phenoxy)-3-methylbutan-2-yl)amino)benzamido)propanoate] | 0.197 | – | – | IC50 (glucagon receptor (GCGR); cell prints its own unit uM under a nM head): > 30 µM |
| CC(C)C[C@@H](COc1cc(F)c(-c2cc3ccccc3o2)c(F)c1)Nc1ccc(C(=O)NCCC(=O)O)cc1 [Compound 7-10, (S)-3-(4-((1-(4-(benzofuran-2-yl)-3,5-difluorophenoxy)-4-methylpentan-2-yl)amino)benzamido)propanoic Acid] | 0.7309 | 0.145 | – | – |
| O=C(O)CCNC(=O)c1ccc(NC(COc2ccc(-c3ccc(C(F)(F)F)cc3)cc2)c2ccccc2)cc1 (stereo not drawn) [Compound 1-28, 3-(4-((1-phenyl-2-((4′-(trifluoromethyl)-[1,1′-biphenyl]-4-yl)oxy)ethyl)amino)benzamido)propanoic Acid] | 0.2877 | 0.15 | – | – |
| CCCOC[C@H](Cc1ccc(-c2ccc(OC(F)(F)F)cc2)cc1)Nc1ccc(C(=O)NCCC(=O)O)cc1 [Compound 19-24, (S)-3-(4-((1-propoxy-3-(4′-(trifluoromethoxy)-[1,1′-biphenyl]-4-yl)propan-2-yl)amino)benzamido)propanoic Acid] | – | – | 0.6304 | IC50 (glucagon receptor (GCGR)): 0.512 µM |
| CCOC(=O)CCNC(=O)c1ccc(N[C@H](Cc2ccc(-c3cc4ccccc4o3)cc2)C(=O)Nc2ccc(C(F)(F)F)cc2)cc1 [Compound 24-19, Ethyl (R)-3-(4-((3-(4-(benzofuran-2-yl)phenyl)-1-oxo-1-((4-(trifluoromethyl)phenyl)amino)propan-2-yl)amino)benzamido)propanoate] | – | – | 0.5384 | IC50 (glucagon receptor (GCGR)): 1.37 µM |
| CC[C@H](C)[C@@H](COc1ccc(-c2cc3ccccc3o2)cc1)Nc1ccc(C(=O)NC[C@@H](O)C(=O)O)cc1 [Compound 1-9, (R)-3-(4-(((2S,3S)-1-(4-(benzofuran-2-yl)phenoxy)-3-methylpentan-2-yl)amino)benzamido)-2-hydroxypropanoic Acid] | 3.6 | 0.26 | – | – |
| CC[C@H](C)[C@@H](COc1ccc(-c2ccc(Cl)cc2Cl)c(OC)c1)Nc1ccc(C(=O)NCCC(=O)O)cc1 [Compound 13-2, 3-(4-(((2S,3S)-1-((2′,4′-dichloro-2-methoxy-[1,1′-biphenyl]-4-yl)oxy)-3-methylpentan-2-yl)amino)benzamido)propanoic Acid] | 0.254 | 0.092 | – | – |
| CC(C)COC[C@@H](Cc1ccc(-c2ccc(OC(F)(F)F)cc2)cc1)Nc1ccc(C(=O)NCCC(=O)O)cc1 [Compound 19-19, (R)-3-(4-((1-isobutoxy-3-(4′-(trifluoromethoxy)-[1,1′-biphenyl]-4-yl)propan-2-yl)amino)benzamido)propanoic Acid] | – | – | 0.5825 | IC50 (glucagon receptor (GCGR)): 0.317 µM |
| CC(C)C[C@@H](COc1cc(F)c(-c2cc(Cl)cc(Cl)c2)c(F)c1)Nc1ccc(C(=O)NCCC(=O)O)cc1 [Compound 7-9, (S)-3-(4-((1-((3′,5′-dichloro-2,6-difluoro-[1,1′-biphenyl]-4-yl)oxy)-4-methylpentan-2-yl)amino)benzamido)propanoic Acid] | 0.816 | 0.262 | – | – |
| CCCCC[C@H](Cc1ccc(-c2cc3ccccc3o2)cc1)Nc1ccc(C(=O)NCCC(=O)O)cc1 [Compound 19-6, (R)-3-(4-((1-(4-(benzofuran-2-yl)phenyl)heptan-2-yl)amino)benzamido)propanoic Acid] | – | – | 0.632 | IC50 (glucagon receptor (GCGR)): 0.158 µM |
| CCCC[C@@H](COc1ccc(-c2ccc(C(F)(F)F)cc2Cl)c(Cl)c1)Nc1ccc(C(=O)NCCC(=O)O)cc1 [Compound 3-8, (S)-3-(4-((1-((2,2′-dichloro-4′-(trifluoromethyl)-[1,1′-biphenyl]-4-yl)oxy)hexan-2-yl)amino)benzamido)propanoic Acid] | 0.035 | 0.026 | – | – |
| CC[C@H](C)[C@@H](COc1ccc(-c2ccc(C(F)(F)F)cc2F)c(F)c1)Nc1ccc(C(=O)NCCC(=O)O)cc1 [Compound 8-10, 3-(4-(((2S,3S)-1-((2,2′-difluoro-4′-(trifluoromethyl)-[1,1′-biphenyl]-4-yl)oxy)-3-methylpentan-2-yl)amino)benzamido)propanoic Acid] | 0.3532 | 0.186 | – | – |
| CC(C)[C@@H](COc1ccc(-c2ccc(F)cc2F)nn1)Nc1ccc(C(=O)NCCC(=O)O)cc1 [Compound 17-11, (S)-3-(4-((1-((6-(2,4-difluorophenyl)pyridazin-3-yl)oxy)-3-methylbutan-2-yl)amino)benzamido)propanoic Acid] | >30 | 1.01 | – | – |
| CC(C)[C@@H](COc1ccc(-c2ccc(C(F)(F)F)cc2F)nc1)Nc1ccc(C(=O)NCCC(=O)O)cc1 [Compound 10-3, (S)-3-(4-((1-((6-(2-fluoro-4-(trifluoromethyl)phenyl)pyridin-3-yl)oxy)-3-methylbutan-2-yl)amino)benzamido)propanoic Acid] | 1.206 | 0.511 | – | – |
| CC[C@H](C)[C@@H](COc1ccc(-c2ccc(C(F)(F)F)cc2Cl)nn1)Nc1ccc(C(=O)NCCC(=O)O)cc1 [Compound 17-4, 3-(4-(((2S,3S)-1-((6-(2-chloro-4-(trifluoromethyl)phenyl)pyridazin-3-yl)oxy)-3-methylpentan-2-yl)amino)benzamido)propanoic Acid] | 1.266 | 0.609 | – | – |

— patent publication US11384060B2, “Amide compounds and use thereof” (ALPHALA CO., LTD., priority 2017, dated 2022)
